{
  "source": "patent US20250388534A1",
  "about": "(SHENZHEN SHINEHIGH INNOVATION CO., LTD., priority 2022, published 2025)",
  "key": {"cellular tyrosinase": {"molecular_target": "T1, cellular tyrosinase (Mus musculus, UniProt P11344)", "T1 construct": "endogenous in cells; host or cells: B16 melanoma cells", "T1 sequence (P11344 19-533)": "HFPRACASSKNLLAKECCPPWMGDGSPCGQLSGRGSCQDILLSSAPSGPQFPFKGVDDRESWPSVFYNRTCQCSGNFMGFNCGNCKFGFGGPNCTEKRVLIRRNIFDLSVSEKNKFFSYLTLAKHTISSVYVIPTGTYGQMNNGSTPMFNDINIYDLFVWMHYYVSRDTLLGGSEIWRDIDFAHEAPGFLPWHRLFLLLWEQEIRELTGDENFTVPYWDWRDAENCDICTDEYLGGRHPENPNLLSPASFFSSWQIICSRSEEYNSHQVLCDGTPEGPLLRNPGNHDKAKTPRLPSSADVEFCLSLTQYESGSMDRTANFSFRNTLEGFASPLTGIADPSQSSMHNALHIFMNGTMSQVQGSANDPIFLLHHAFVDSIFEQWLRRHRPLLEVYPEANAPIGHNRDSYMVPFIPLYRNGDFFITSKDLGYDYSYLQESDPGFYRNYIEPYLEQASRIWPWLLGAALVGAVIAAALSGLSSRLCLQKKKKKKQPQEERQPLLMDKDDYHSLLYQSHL", "test": "Cellular tyrosinase activity inhibition assay in B16 cells", "format": "cell-based", "protocol": "(§1) And the cellular melanin content, tyrosinase activity, and tyrosinase inhibition rate are tested within a safe concentration."}, "[1]": {"system": "melanin synthesis in B16 cells", "test": "Inhibition of melanin synthesis in B16 cells (T/SHRH027-2019)", "format": "cell-based", "protocol": "as §1"}, "tyrosinase": {"system": "tyrosinase", "test": "In vitro tyrosinase inhibition assay (T-SHRH015-2018)", "format": "biochemical", "settings": "for Cellular tyrosinase activity inhibition (%): in vitro tyrosinase inhibition assay", "protocol": "as §1"}, "[2]": {"test": "ABTS+⋅ scavenging rate determination", "settings": "50 to 250 μg/mL, FIG. 7", "protocol": "(§2) The DPPH⋅ radical scavenging rate and ABTS^+⋅ scavenging rate are measured, and the test methods are as follows.\nABTS^+⋅ scavenging rate determination: ABTS solution (7 mmol/L) and potassium persulfate solution (2.45 mmol/L) are mixed in a 1:1 (v/v) ratio and shaken to prepare the ABTS stock solution, which is allowed to sit at room temperature for 12 h to 16 h (protected from light). Then, the ABTS stock solution is diluted with a phosphate buffer solution of 10 mmol/L and pH 7.4, and the absorbance A0 of the diluted solution is measured at a wavelength of 734 nm, aiming to reach 0.70±0.002. For each sample solution at different mass concentrations, 50 μL is taken and mixed with 750 μL of the ABTS assay solution. The mixture is thoroughly mixed and allowed to react for 6 min. The absorbance is measured at a wavelength of 734 nm as A1, with an absolute ethanol solution used in place of the ABTS solution to measure the absorbance as A2. VC is used as a positive control during the test, and the calculation of the ABTS^+⋅ scavenging rate follows Formula (2)."}, "[3]": {"test": "DPPH⋅ radical scavenging rate determination", "settings": "50 to 250 μg/mL, FIG. 6", "protocol": "as §2\nDPPH⋅ radical scavenging rate determination: For each sample solution at different mass concentrations, 0.2 mL is taken and mixed with 0.8 mL of a 60 μmol/L DPPH⋅ solution (prepared with absolute ethanol). The mixture is then reacted for 30 min in the dark, and the absorbance is measured at a wavelength of 517 nm as A1. The absorbance using 70% ethanol solution instead of the sample is measured as A0, and the absorbance using absolute ethanol instead of the DPPH⋅ solution is measured as A2. VC is used as a positive control during the test. The calculation of the DPPH⋅ radical scavenging rate is shown in Formula (2): […]"}, "[4]": {"test": "Thermogravimetric analysis of thermal decomposition behavior", "format": "physicochemical", "settings": "heating rate 5.0 K/min, FIG. 2"}, "IL-1α": {"system": "IL-1α", "test": "TPA-induced mouse ear edema model, IL-1α in ear tissue by ELISA", "format": "in vivo, mice", "settings": "salt 0.8 mg/ear, mandelic acid 0.39 mg/ear", "protocol": "(§3) TPA-induced mouse ear edema model and administration method. Male KM mice of SPF grade weighing 20 g to 23 g are acclimatized at a temperature of 25° C. and a relative humidity of 40% to 70% for 24 h (12 h each under alternating light and dark conditions), and given sufficient food and water to allow them to eat freely. The mice are randomly divided into 6 groups: blank group (BC), negative control group (NC), positive control group (PC), and 2 treatment groups. […] After 6 h, the mice are immediately killed by breaking their necks. The ear tissues are ground in liquid nitrogen, then ground tissues are transferred to a 4 mL EP tube, and 1 mL of T-PER tissue protein extraction reagent is added. The solution is mixed thoroughly for about 30 min, and then subjected to intermittent sonication for 10 s at 20 Hz, followed by 2 min of ultrasonic treatment to fully lyse the ear tissues. The mixture is centrifuged at 4° C. and 13000 r/min for 20 min. Supernatants are collected to determine the levels of the inflammatory factors IL-1α, TNF-α, and MIP-2 in ear tissues using the ELISA method."}, "MIP-2": {"system": "MIP-2", "test": "TPA-induced mouse ear edema model, MIP-2 in ear tissue by ELISA", "format": "in vivo, mice", "settings": "salt 0.8 mg/ear, mandelic acid 0.39 mg/ear", "protocol": "as §3"}, "TNF-α": {"system": "TNF-α", "test": "TPA-induced mouse ear edema model, TNF-α in ear tissue by ELISA", "format": "in vivo, mice", "settings": "salt 0.8 mg/ear, mandelic acid 0.39 mg/ear", "protocol": "as §3"}, "[5]": {"system": "chick embryo chorioallantoic membrane (CAM)", "test": "Eye irritation/corrosion chick embryo chorioallantoic membrane assay (irritation score IS)", "protocol": "The test method is as follows.\nPreparation of CAM: The viability of 9-day-old chick embryos is checked using fertilized eggs. The shell of the air cell is removed using dental serrated forceps to expose the white egg membrane, with care taken to avoid damaging the integrity of the membrane. A drop of 0.9% sodium chloride solution is added with a pipette to moisten the membrane. The inner membrane is carefully removed with forceps, ensuring that the vascular membrane is not damaged. At this point, the structure of the vascular system is observed again, and a judgment is made regarding its integrity and suitability for the test.\nPre-test: Two chick embryos are taken to assess the reactivity of this batch, with the duration of action limited to within 5 min. […]\nReaction evaluation method: 0.3 mL or 0.3 g of the test substance is applied to the CAM, ensuring that at least 50% of the CAM surface is covered by the test substance. The reaction of the CAM is observed, and the time at which each type of toxicity effect appears within 5 min of application is recorded.\nThe irritation score (IS) is a test conducted using the reaction time method, with the irritation score (IS) calculated using Formula (3), and the results are retained to two decimal places: […]\nsecH (bleeding time) refers to the average time observed for bleeding to begin on the CAM membrane, measured in seconds(s). secL (vascular lysis time) refers to the average time observed for vascular lysis to begin on the CAM membrane, measured in seconds(s). secC (clotting time) refers to the average time observed for clotting to begin on the CAM membrane, measured in seconds(s)."}, "melanoma cells (B16)": {"system": "melanoma cells (B16)", "test": "Cytotoxicity test by melanoma cells (B16)", "format": "cell-based", "settings": "PC 10% DMSO"}, "[6]": {"settings": "0.0006%, 0.0012%, 0.002% (m/V), p<0.05 vs blank control"}, "[7]": {"settings": "mean of R1-R3, mouse ear tissue 6 h after TPA 2.0 μg/ear"}, "[8]": {"settings": "mouse ear tissue, 6 h after TPA"}, "[9]": {"settings": "replicate R1, mouse ear tissue 6 h after TPA 2.0 μg/ear"}, "[10]": {"settings": "replicate R3, mouse ear tissue 6 h after TPA 2.0 μg/ear"}, "[11]": {"settings": "reaction time method, single chick embryos 1-6, in s"}},
  "note": "Several values for one entry are separate records, joined by “and”; a condition that tells them apart may be missing. Equal values may be shown once.",
  "data": [
    {"molecule": "supramolecular tranexamic acid-citric acid ionic salt [Comparative Example 1]", "values": [
      {"measurement": "Cellular tyrosinase activity inhibition (%)", "setting": "cellular tyrosinase; 0.0006% m/V", "value": 2.17, "unit": "%"},
      {"measurement": "effect on cellular tyrosinase activity", "setting": "cellular tyrosinase; [6]", "value": "had an inhibitory effect on cellular tyrosinase activity"},
      {"measurement": "Cellular tyrosinase activity inhibition (%)", "setting": "cellular tyrosinase; 0.0012% m/V", "value": 10.05, "unit": "%"},
      {"measurement": "Cellular tyrosinase activity inhibition (%)", "setting": "cellular tyrosinase; 0.0020% m/V", "value": 11.26, "unit": "%"},
      {"measurement": "Inhibition rate of cell melanin content (%)", "setting": "[1]; 0.0006% m/V", "value": 15.32, "unit": "%"},
      {"measurement": "effect on cell melanin synthesis ability", "setting": "[1]; [6]", "value": "had an inhibitory effect on the cell melanin synthesis ability"},
      {"measurement": "Inhibition rate of cell melanin content (%)", "setting": "[1]; 0.0012% m/V", "value": 18.19, "unit": "%"},
      {"measurement": "Inhibition rate of cell melanin content (%)", "setting": "[1]; 0.0020% m/V", "value": 22.51, "unit": "%"},
      {"measurement": "Cellular tyrosinase activity inhibition (%)", "setting": "tyrosinase; 0.625 % m/V", "value": 5.36, "unit": "%"},
      {"measurement": "Cellular tyrosinase activity inhibition (%)", "setting": "tyrosinase; 1.25 % m/V", "value": 60.49, "unit": "%"},
      {"measurement": "Cellular tyrosinase activity inhibition (%)", "setting": "tyrosinase; 2.50 % m/V", "value": 65.38, "unit": "%"},
      {"measurement": "Cellular tyrosinase activity inhibition (%)", "setting": "tyrosinase; 5 % m/V", "value": 67.57, "unit": "%"},
      {"measurement": "Cellular tyrosinase activity inhibition (%)", "setting": "tyrosinase; 10 % m/V", "value": 69.99, "unit": "%"},
      {"measurement": "inhibition rate on tyrosinase", "setting": "tyrosinase; in vitro, concentrations of 1.25 to 10% (m/V)", "value": "above 60%"}
    ]},
    {"molecule": "O=C1O[C@H]([C@@H](O)CO)C(O)=C1O", "note": "[VC]", "values": [
      {"measurement": "ABTS+⋅ scavenging effect (ranking)", "setting": "[2]", "value": "best scavenging effect"},
      {"measurement": "DPPH⋅ radical scavenging effect (ranking)", "setting": "[3]", "value": "best scavenging effect"}
    ]},
    {"molecule": "O=C(O)C(O)c1ccccc1", "note": "(centres unmarked) [mandelic acid, a-hydroxyphenylacetic acid]", "values": [
      {"measurement": "temperature at which thermal decomposition behavior begins", "setting": "[4]", "value": "~135", "unit": "°C"},
      {"measurement": "IL-1α Concentration", "setting": "IL-1α; [7]", "value": 28.51, "unit": "µg/mL"},
      {"measurement": "level of IL-1α compared with the negative control group", "setting": "IL-1α; [8]", "value": "decrease"},
      {"measurement": "IL-1α concentration, R1", "setting": "IL-1α; [9]", "value": 28.59, "unit": "µg/mL"},
      {"measurement": "IL-1α concentration, R3", "setting": "IL-1α; [10]", "value": 29.31, "unit": "µg/mL"},
      {"measurement": "MIP-2 Concentration", "setting": "MIP-2; [7]", "value": 50.82, "unit": "µg/mL"},
      {"measurement": "level of MIP-2 compared with the negative control group", "setting": "MIP-2; [8]", "value": "decrease"},
      {"measurement": "MIP-2 concentration, R1", "setting": "MIP-2; [9]", "value": 51.32, "unit": "µg/mL"},
      {"measurement": "MIP-2 concentration, R3", "setting": "MIP-2; [10]", "value": 50.98, "unit": "µg/mL"},
      {"measurement": "TNF-α Concentration", "setting": "TNF-α; [7]", "value": 85.98, "unit": "µg/mL"},
      {"measurement": "level of TNF-α compared with the negative control group", "setting": "TNF-α; [8]", "value": "decrease"},
      {"measurement": "TNF-α concentration, R1", "setting": "TNF-α; [9]", "value": 85.34, "unit": "µg/mL"},
      {"measurement": "TNF-α concentration, R3", "setting": "TNF-α; [10]", "value": 88.27, "unit": "µg/mL"},
      {"measurement": "ABTS+⋅ scavenging effect (ranking)", "setting": "[2]", "value": "weakest effect"},
      {"measurement": "irritation classification", "setting": "[5]; 2% aqueous solution of the salt, equivalent molar mandelic acid solution, CAM assay", "value": "mild irritation"},
      {"measurement": "Test result: IS", "setting": "[5]; overall irritation score of 6 chick embryos", "value": "IS = 1.03"},
      {"measurement": "Bleeding severity score", "setting": "[5]; reaction time method, single chick embryos 1-6", "value": 301, "unit": "s"},
      {"measurement": "Coagulation score", "setting": "[5]; [11]", "value": "301 and 290 and 250"},
      {"measurement": "Vascular lysis score", "setting": "[5]; [11]", "value": "260 and 280 and 290 and 301 and 210"},
      {"measurement": "DPPH⋅ radical scavenging effect (ranking)", "setting": "[3]", "value": "weakest effect"}
    ]},
    {"molecule": "C[S+](C)[O-]", "note": "[DMSO]", "values": [
      {"measurement": "Cell viability (%)", "setting": "melanoma cells (B16)", "value": "40.26% and 39.46%"}
    ]},
    {"molecule": "NC[C@H]1CC[C@H](C(=O)O)CC1", "note": "[tranexamic acid]", "values": [
      {"measurement": "temperature at which thermal decomposition behavior begins", "setting": "[4]", "value": "around 77 °C"}
    ]}
  ]
}
